Assays:
[1] = test system: endothelial cells; conditions: summary table; cited from earlier work; note: key: '+' represents the ability; a '−' represents the inability of conversion from a non-contracile phenotype to a contractile phenotype in an in vitro condition; A '↓' represents decrease; a '?' represents no data is available
[2] = test system: collagen expression; conditions: summary table; cited from earlier work
[3] = test system: smooth muscle cells; conditions: conversion from non-contractile to contractile phenotype in vitro; cited from earlier work; note: key: '+' represents the ability; a '−' represents the inability of conversion from a non-contracile phenotype to a contractile phenotype in an in vitro condition; A '↓' represents decrease; a '?' represents no data is available
[4] = summary table; cited from earlier work
[5] = summary table; cited from earlier work; remark: listed apart in the source
[6] = test system: restenosis; conditions: summary table; cited from earlier work
[7] = test system: restenosis; conditions: summary table; cited from earlier work; remark: listed apart in the source
[8] = test system: restenosis; conditions: summary table; cited from earlier work; remark: listed apart in the source
[9] = test system: rat vascular smooth muscle cells; assay: Vascular smooth muscle cell proliferation (cell number); type: cell-based; conditions: concentration-dependent; PTU 0.05-5 millimolar, methimazole 0.01-1 millimolar
Experimental: (§1) Rat vascular smooth muscle cells (VSMCs) (passages 5-10) were prepared from Sprague-Dawley rats and cultured in Dulbecco's modified Eagle's medium (DMEM) supplemented with 10% fetal bovine serum (FBS) as previously described (Kirschenlohr et al, in “Human Cell Culture Protocols”, New Jersey, Humana Press Inc, 1996, pp. 318-335). Human endothelial cells from umbilical veins were prepared as described (Morgan, in “Human Cell Culture Protocols”, New Jersey, Humana Press Inc, 1996, pp. 101-152)
(§2) Rat vascular smooth muscle cells and human endothelial cells were plated at a density of 10,000 cells per square centimeter in 24-well plates. After 24 hours, cells at 70-80% confluency were treated with propylthiouracil dissolved in 100% dimethylsulfoxide (DMSO) at final concentrations of from 0.05 millimolar to 15 millimolar, or with methimazole (Sigma, St. Louis, Mo.) dissolved in water at the concentrations of from 0.01 millimolar to 1 millimolar for 24-72 hours. Cell numbers were visually counted using a hemocytometer. For the thymidine incorporation study, cells were deprived of serum for 36 hours and labeled with [methyl-^3H]thymidine at […] per milliliter for 12-24 hours after synchronization. Thymidine incorporation was then measured (Newby and George, 1996, Curr. Opin. Cardiol., 11:547). Effects of propylthiouracil and methimazole on the number of vascular smooth muscle cells and human endothelial cells and thymidine incorporation by vascular smooth muscle cells were each expressed as a percentage of the number and thymidine incorporation of control cells maintained in medium containing 0.1% DMSO as vehicle.

[10] = test system: rat vascular smooth muscle cells; assay: [methyl-3H]thymidine incorporation into VSMCs; type: cell-based; conditions: concentration-dependent
Experimental: as §1, §2
Throughout, for Anti-coagulation: key: '+' represents the ability; a '−' represents the inability of conversion from a non-contracile phenotype to a contractile phenotype in an in vitro condition; A '↓' represents decrease; a '?' represents no data is available.
Throughout, for Anti-inflammation: key: '+' represents the ability; a '−' represents the inability of conversion from a non-contracile phenotype to a contractile phenotype in an in vitro condition; A '↓' represents decrease; a '?' represents no data is available.

| Compound | Endothelial cellular function [1] | Collagen expression [2] | Phenotype change [3] | Anti-coagulation [4] | Anti-inflammation [5] | Effect on animal models of restenosis, Rat [6] | Effect on animal models of restenosis, Pig [7] | Effect on restenosis, Human [8] | Inhibition of growth/proliferation of VSMCs [9] | Inhibition of thymidine incorporation into VSMCs [10] |
| --- | --- | --- | --- | --- | --- | --- | --- | --- | --- | --- |
| CC1=C(/C=C/C(C)=C/C=C/C(C)=C/C(=O)O)C(C)(C)CCC1 [All-trans retinoic acid] | + | ↑ | + | − | − | + |  |  |  |  |
| CC(=O)O[C@H]1C(=O)[C@@]2(C)[C@H]([C@H](OC(=O)c3ccccc3)[C@]3(O)C[C@H](OC(=O)[C@H](O)[C@@H](NC(=O)c4ccccc4)c4ccccc4)C(C)=C1C3(C)C)[C@]1(OC(C)=O)CO[C@@H]1C[C@@H]2O [Paclitaxel] | − |  |  |  |  | + | + | + |  |  |
| Cn1cc[nH]c1=S [methimazole] |  |  |  |  |  |  |  |  | but not methimazole (MMI), significantly inhibited | but not methimazole (MMI), significantly inhibited |
| Heparin | − |  | − | + | − | + | + | − |  |  |

— patent US6939863B2, “Prevention of atherosclerosis and restenosis” (priority 2002, dated 2005)
